Key:
MERTK [1] = assay: In vitro treatment of RA patient whole blood, qRT-PCR: MERTK; format: cell-based, human; conditions: 500 nM CCR1 antagonist, 3 hours
Method: (§1) FIGS. 3A-B show relative CLEC5A and MERTK expression levels in RA patient blood. Whole blood from RA patients was shipped overnight and treated with 500 nM CCR1 antagonist for 3 hours. RNA was isolated and analyzed by qRT-PCR. Expression levels are represented as mRNA levels relative to the untreated control samples as a function of treatment condition. Percent inhibition of gene expression by the investigational drug was calculated and is represented as “% change”. C-reactive protein (CRP) levels of subjects, as determined by Bioreclamation, are listed as well.
(§2) Whole blood, collected from RA patients, was stimulated with 500 nM of a CCR1 antagonist for 3 hours at 37° C. After the incubation, RNA was isolated and the gene expression levels of CLEC5A, MERTK, and the endogenous control HPRT1 were assessed by qRT-PCR for each subject. CLEC5A and MERTK mRNA levels (normalized to that of HPRT1) were calculated relative to the untreated control sample for each patient.
(§3) Whole blood, drawn in EDTA VACUTAINER® tubes from RA patients, was obtained from Bioreclamation for in vitro treatment with BMS-817399 and subsequent qRT-PCR analysis. […] Serum CRP and whole blood ESR levels of qualified subjects were also assessed by Bioreclamation. […] Data were analyzed in the SDS software for relative quantitation. […]

PHLDA2 = assay: Whole genome mRNA profiling, whole blood + RANTES: PHLDA2; format: cell-based, human; conditions: probe 209803_s_at; healthy volunteer whole blood, RANTES 100 nM +/- BMS-817399 1 uM
Method: (§4) Gene profiling experiments to identify genes downstream of CCR1 signaling (via CCR1 ligand stimulation) were performed. It was shown that these genes were blocked following treatment with a CCR1 antagonist. Whole blood from three healthy volunteers was treated with RANTES (100 nM, CCL5), in the presence and absence of the CCR1 antagonist (50 nM, 1 μM) for 4 and 24 hours. Following the incubation, mRNA was isolated for whole genome mRNA profiling.
(§5) Lyophilized human recombinant CCR1 ligand RANTES (Peprotech, Rocky Hill, N.J.) was reconstituted to 100 μM per the manufacturer's instructions. BMS-817399 was reconstituted to 10 mM in 100% DMSO (Sigma-Aldrich, St. Louis Mo.) and further diluted 1:50 in 10% DMSO. […] RNA quantity and quality were assessed on the ND-8000 spectrophotometer (Thermo Scientific, Wilmington, Del.) and RNA integrity was assessed on the AGILENT® 2100 Bioanalyzer using the RNA 6000 Nano Lab Chip kit (Agilent Technologies, Santa Clara, Calif.).
(§6) RNA samples with yields ≧1.5 μg and RIN (RNA integrity number) values of 6.5 and above were randomized in 96-well plates and normalized to a concentration of 250 ng/μL in preparation for microarray analysis. […] Data obtained from the microarray analysis were analyzed by statisticians internal to Bristol-Myers Squibb. […]

[2] = Phase 1 trial in healthy human subjects: safety; format: in vivo
Description: Current standard of care for the treatment of RA includes disease-modifying anti-rheumatic drugs that decrease immune activation and subsequent inflammation. However, a large proportion of patients are non-responsive to these medications, thus resulting in progression of disease symptoms. […] Further, identification of predictive biomarkers may allow for patient stratification in future clinical trials. Identification of patients most likely to respond favorably to the CCR1 antagonist may provide justification for use of a CCR1 antagonist earlier in the course of treatment, potentially preventing extensive structural damage of the joints.

CLEC5A [3] = assay: Whole genome mRNA profiling, whole blood + RANTES: CLEC5A; format: cell-based, human; conditions: probe 219890_at; healthy volunteer whole blood, RANTES 100 nM +/- BMS-817399 1 uM; 4 hours
Method: as §4, §5, §6

MERTK [4] = assay: Whole genome mRNA profiling, whole blood + RANTES: MERTK; format: cell-based, human; conditions: probe 206028_s_at; healthy volunteer whole blood, RANTES 100 nM +/- BMS-817399 1 uM; 4 hours
Method: as §4, §5, §6

TLR8 = assay: Whole genome mRNA profiling, whole blood + RANTES: TLR8; format: cell-based, human; conditions: probe 220832_at; healthy volunteer whole blood, RANTES 100 nM +/- BMS-817399 1 uM
Method: as §4, §5, §6

CSPG2 = assay: Whole genome mRNA profiling, whole blood + RANTES: CSPG2; format: cell-based, human; conditions: probe 204620_s_at; healthy volunteer whole blood, RANTES 100 nM +/- BMS-817399 1 uM
Method: as §4, §5, §6

MERTK [5] = assay: Phase 1 trial, ex vivo RANTES-stimulated whole blood qRT-PCR: MERTK; format: in vivo, human; conditions: healthy volunteers, single and multiple oral doses; ex vivo 25 nM RANTES, 2 hours, 37° C.
Method: (§7) FIGS. 2A-D show relative CLEC5A and MERTK expression levels in a Phase I clinical trial. Healthy volunteers were treated with single or multiple doses of a CCR1 antagonist through oral administration at various dose levels; blood samples from subjects were treated ex vivo with CCR1 ligand RANTES. RNA was isolated and analyzed by qRT-PCR. Expression levels are represented as (negative) change in median CT (cycle threshold) value between the target (CLEC5A or MERTK) and the endogenous control (GAPDH) as a function of time.
(§8) In this study (Example 2), healthy volunteers were treated with single or multiple doses of a CCR1 antagonist through oral administration at various dose levels. Pharmacodynamic effects of the compound were assessed using an ex vivo functional assay at various times post dosing. For the assay, whole blood was collected at indicated time points following dosing with the CCR1 antagonist and stimulated ex vivo for 2 hours at 37° C. with 25 nM recombinant human RANTES. After the incubation, RNA was isolated and CLEC5A and MERTK mRNA levels, relative to the GAPDH housekeeping gene, were measured by qRT-PCR in triplicate at each time-point for each subject. The median cycle time (CT) for each gene was evaluated and changes in the CT values (ΔCT) were calculated by subtracting the median GAPDH CT value from the corresponding median values for CLEC5A CT or MERTK CT. […]

FPRL2 = assay: Whole genome mRNA profiling, whole blood + RANTES: FPRL2; format: cell-based, human; conditions: probe 214560_at; healthy volunteer whole blood, RANTES 100 nM +/- BMS-817399 1 uM; 4 hours
Method: as §4, §5, §6

KYNU = assay: Whole genome mRNA profiling, whole blood + RANTES: KYNU; format: cell-based, human; conditions: probe 217388_s_at; healthy volunteer whole blood, RANTES 100 nM +/- BMS-817399 1 uM
Method: as §4, §5, §6

SPP1 = assay: Whole genome mRNA profiling, whole blood + RANTES: SPP1; format: cell-based, human; conditions: probe 209875_s_at; healthy volunteer whole blood, RANTES 100 nM +/- BMS-817399 1 uM; 24 hours
Method: as §4, §5, §6

CLEC5A [6] = assay: Phase 1 trial, ex vivo RANTES-stimulated whole blood qRT-PCR: CLEC5A; format: in vivo, human; conditions: healthy volunteers, single and multiple oral doses; ex vivo 25 nM RANTES, 2 hours, 37° C.
Method: as §7, §8

FCN1 = assay: Whole genome mRNA profiling, whole blood + RANTES: FCN1; format: cell-based, human; conditions: probe 206237_at; healthy volunteer whole blood, RANTES 100 nM +/- BMS-817399 1 uM; 24 hours
Method: as §4, §5, §6

CD86 = assay: Whole genome mRNA profiling, whole blood + RANTES: CD86; format: cell-based, human; conditions: probe 210895_s_at; healthy volunteer whole blood, RANTES 100 nM +/- BMS-817399 1 uM
Method: as §4, §5, §6

CLEC5A [7] = assay: In vitro treatment of RA patient whole blood, qRT-PCR: CLEC5A; format: cell-based, human; conditions: 500 nM CCR1 antagonist, 3 hours
Method: as §1, §2, §3

CC(C)[C@@H](NC(=O)NCC(C)(C)O)C(=O)N1CC[C@](O)(c2ccc(Cl)cc2)C(C)(C)C1 [BMS-817399]
decrease of MERTK expression levels relative to the untreated control samples (MERTK [1]): more than 30%
PHLDA2 expression, Fold Change (PHLDA2): −2.252
PHLDA2 expression, Mean (PHLDA2): −1.171
safety profile [2]: acceptable safety profile
CLEC5A expression, Fold Change (CLEC5A [3]): −5.123
CLEC5A expression, Mean (CLEC5A [3]): −2.357
MERTK expression, Fold Change (MERTK [4]): −2.417
MERTK expression, Mean (MERTK [4]): −1.274
TLR8 expression, Fold Change (TLR8): −2.232
TLR8 expression, Mean (TLR8): −1.158
CSPG2 (versican) expression, Fold Change (CSPG2): −4.39
CSPG2 (versican) expression, Mean (CSPG2): −2.134
inhibition of MERTK gene expression in whole blood (MERTK [5]): rapid and potent inhibition
FPRL2 expression, Fold Change (FPRL2): −3.571
FPRL2 expression, Mean (FPRL2): −1.836
KYNU (kynureninase) expression, Fold Change (KYNU): −2.32
KYNU (kynureninase) expression, Mean (KYNU): −1.214
SPP1 (osteopontin) expression, Fold Change (SPP1): −6.547
SPP1 (osteopontin) expression, Mean (SPP1): −2.711
inhibition of CLEC5A gene expression in whole blood (CLEC5A [6]): rapid and potent inhibition
FCN1 (ficolin 1) expression, Fold Change (FCN1): −2.234
FCN1 (ficolin 1) expression, Mean (FCN1): −1.16
CD86 expression, Fold Change (CD86): −2.559
CD86 expression, Mean (CD86): −1.356
decrease of CLEC5A expression levels relative to the untreated control samples (CLEC5A [7]): more than 30%

— patent US20150225790A1, “METHODS FOR IDENTIFYING SUBJECTS WITH AN INCREASED LIKELIHOOD OF RESPONDING TO CCR1 ANTAGONIST” (BRISTOL-MYERS SQUIBB COMPANY, priority 2012, published 2015)
